The values that follow come from patent publication US11779600B2, “Methods of treating or preventing alzheimer's disease and associated conditions” (CEDARS-SINAI MEDICAL CENTER, priority 2016, dated 2023).

Type in all cases: cell-based, mouse
The test system of test [1] is primary cortical neurons (CN). In words: Synaptic toxicity of Aβ1-42 assemblies in primary cortical neurons. The note with it: for reduction in co-localized VGluT1/PSD95+ puncta number: 250 nM Aβ assemblies, 12 hours, vs CN in medium alone (FIG. 1D); for decrease of co-localized VGluT1/PSD95+ puncta synaptic number: overnight exposure (FIG. 2E). As for the experimental part:
Initially, synaptic toxicity induced by stable, structurally defined fAβ1-42 and oAβ1-42 forms in primary cortical neurons (CN) was tested. Neurons were incubated for 12 hours with 250 nM of Aβ assemblies or with medium only (vehicle) during day 8 of culture. An extensive loss of pre- and post-synaptic (VGluT1 & PSD-95, respectively) area and number, induced by both f/oAβ1-42 forms, was clearly detected (FIG. 1A-C). Synaptic density quantification indicated a significant 50% reduction in co-localized VGluT1/PSD95^+ puncta number following fAβ1-42. Moreover, we detected a 70% decrease in puncta number by oAβ1-42 when compared with CN in medium alone (FIG. 1D; p<0.0001). […] Next, Aβ-induced neuritic retraction was assessed. CN were immunolabeled with anti-Tuj1 and the total neuritic length per neuron was precisely quantified (FIG. 2A-D). Overnight incubation of f/oAβ1-42 led to a massive neuritic retraction compared with control CN group (FIG. 2B vs. 2A). Whether untreated- and GA-treated BM-derived MΦ (CD68^+ cells) could prevent synaptic and neuritic loss was tested next. Primary CN and MΦ were co-cultured for 48 h and introduced Aβ1-42 forms during the last 12 hours of co-culture. […] Quantitative analysis of co-localized VGluT1/PSD95^+ puncta synaptic number confirmed decreases of 32% and 65% after overnight exposure to fAβ1-42 or oAβ1-42, respectively (FIG. 2E). […] The in vivo effects of Aβ accumulation on synaptopathy and possible synaptic rescue by GA immunization or grafted BM-CD115^+ Mo was assessed. Pre- and post-synaptic alterations in coronal brain sections of 13m old AD^+(ADtg) mice that received these immune-modulation interventions were quantified (FIG. 3A-D). High magnification z-stack images obtained from 19 predefined areas in hippocampus and entorhinal cortex were captured in respective Bregma regions (FIG. 3A-D).
P1 neurons are prepared as previously reported. Briefly, cortical neurons (CN) are obtained from 1 day old neonatal mice, dissociated, resuspended and plated in 24-well culture plate at 5×10^4/ml cells. BM-MΦ are obtained as described herein. In short, mononuclear enriched BM-derived cells are isolated from C57BL/6 mice and differentiated into MΦ for 7 days. […] Cultures are processed for quantification of synaptic density and neuritic length. […] Microphotographs are shot using a Carl Zeiss ApoTome-equipped Axio Imager ZI fluorescence microscope. Synaptic puncta number and synaptic immunoreactive area are quantified with Puncta Analyzer. Total neurite length is measured using NeuriteTracer. At least 3 coverslips, 36 images and 150 neurons for each condition are analyzed. Average puncta number, synaptic area per image or per neuron will be calculated. […] In brief, on day 9 of culture, spontaneous network activity of CN is recorded for 60 min to gain baseline. […]

Test [2] deals with bone marrow-derived macrophages (MΦ^BM). Kind of test: Fibrillar Aβ1-42 phagocytosis assay in bone marrow-derived macrophages. The note with it: 24 hours treatment, then fAβ1-42 for 30 min; quantitative ICC (FIG. 16E). As for the experimental part: Lyophilized non-fluoro amyloid-β1-42 peptide (#20276; Anaspec) was initially monomerized by dissolving it in ice-cold HFIP (hexafluoroisopropanol) (#52512; Sigma) to a final concentration of 1 mM and then aliquoted in sterile siliconized microcentrifuge tubes. The HFIP was first evaporated while in the sterile hood and then under vacuum conditions in a SpeedVac for 2 h to remove any trace of HFIP; the peptide film was stored at −20° C. until use. To induce fibril formation, fluoro (HiLyte647; #64161; Anaspec) and non-fluoro amyloid-β1-42 films were resuspended in media to which 10% of sterile NaOH 60 mM was first added and the media were vortexed for 30 s. Then, a sterile 45% H2O and a sterile 45% solution of 20 mM NaH2PO4+Na2HPO4 (pH 7.4) were added, and the media were vortexed again and incubated on a shaker for 2 weeks at 37° C. Pre-formed amyloid-β1-42 fibrils were then sonicated for 60 s and diluted to 100 nM using the same media prior to the phagocytosis assay.
To test amyloid-β phagocytosis by macrophage, in repeated experiments monocytes were isolated from the bone marrow of wild-type mice (n=18 mice) and differentiated into macro-phage by 7-day cultivation in complete RPMI-1640 medium (#21870; Life Technologies) with 10% serum and 20 ng/ml MCSF (#315-02; PeproTech). Bone marrow-derived macrophages (MΦBM) were generated from femurs and tibiae cultured for 6-7 days in complete RPMI 1640 medium (Life Technologies) with 10% FBS, 100 U/ml penicillin, 100 μg/ml streptomycin, 2 mM L-glutamine and 20 ng/ml MCSF (PeproTech). Primary cultures of macrophage were then plated at 1.2×10^5 cells per well (3-4 wells for each condition) in 24-well tissue-culture plates on glass cover-slips overnight. Next, macrophages were either treated with 30 μg/ml GA (Copaxone®; TEVA Neuroscience), Brefeldin A (BFA; Sigma, 1X), or 10 μM Minocycline (Sigma) for the duration of 1, 3, or 24 h, or not treated (control group). Before addition of fibrillar amyloid-β1-42, the cells were chilled in a 4° C. ice bath for 5 min; immediately after addition of the preformed fibrillar amyloid-β1-42 (100 nM), the plates were centrifuged at 515g in 25° C. followed by incubation at 37° C. for 30 or 60 min. The cells were then rinsed with amyloid-β-free medium to remove non-incorporated amyloid-β and later washed twice with PBS. Methanol (99.8%) at −20° C. for 20 min or 4% paraformaldehyde at room temperature for 12 min was used for fixation of the cells followed by repeated washes with PBS. […] The fluorescent signal and its total area were determined and quantified by the conversion of individual images to greyscale and standardizing to baseline using histogram-based thresholds with NIH ImageJ software. […]

A further test deals with iNOS. Kind of test: iNOS expression in macrophages by quantitative ICC. The note with it: 24 hours treatment, then fAβ1-42 for 30 min; quantitative ICC (FIG. 16D). As for the experimental part:
To test amyloid-β phagocytosis by macrophage, in repeated experiments monocytes were isolated from the bone marrow of wild-type mice (n=18 mice) and differentiated into macro-phage by 7-day cultivation in complete RPMI-1640 medium (#21870; Life Technologies) with 10% serum and 20 ng/ml MCSF (#315-02; PeproTech). Bone marrow-derived macrophages (MΦBM) were generated from femurs and tibiae cultured for 6-7 days in complete RPMI 1640 medium (Life Technologies) with 10% FBS, 100 U/ml penicillin, 100 μg/ml streptomycin, 2 mM L-glutamine and 20 ng/ml MCSF (PeproTech). Primary cultures of macrophage were then plated at 1.2×10^5 cells per well (3-4 wells for each condition) in 24-well tissue-culture plates on glass cover-slips overnight. […] The fluorescent signal and its total area were determined and quantified by the conversion of individual images to greyscale and standardizing to baseline using histogram-based thresholds with NIH ImageJ software. […]
The expression of inducible nitric oxide synthase (iNOS), a hallmark of the proinflammatory M1 macrophage phenotype, in different treatment groups was assessed next (FIG. 16C-16D). […] Quantitative ICC assays confirmed a significant ˜1.3-fold increase in iNOS expression by minocycline-treated macrophages, and a substantial 48% reduction in Aβ^1-42 phagocytosis. […]

Regarding “oAβ1-42: stabilized oligomeric amyloid-β1-42 assemblies”, in test [1], the “reduction in co-localized VGluT1/PSD95+ puncta number” value came out at 70% and the “decrease of co-localized VGluT1/PSD95+ puncta synaptic number” value is reported as 65%.

In the case of “fAβ1-42: pre-formed fibrils of amyloid-β1-42 peptide”, in test [1], the “reduction in co-localized VGluT1/PSD95+ puncta number” value is on record as 50% and the “decrease of co-localized VGluT1/PSD95+ puncta synaptic number” value is given as 32%.

For the compound `CN(C)c1ccc(O)c2c1C[C@H]1C[C@H]3[C@H](N(C)C)C(O)=C(C(N)=O)C(=O)[C@@]3(O)C(O)=C1C2=O` [minocycline, Minocycline], the “reduction in Aβ1-42 phagocytosis” value in test [2] is listed as 48%. Besides, the “increase in iNOS expression” value in the test on iNOS was around 1.3 fold.
